For one data set, the system named is HIV-IIIb. Description: Test A: Antiviral assay in MT4 cells. Type of data set: cell-based, HIV-1. Conditions: Human immunodeficiency virus 1, IIIB, MT4, 120 h, read-out: % inhibition at 2 μM, percent inhibition of virus-induced cell killing, from dose response curve at 2 uM drug; MT-4 cells infected with HIV-IIIb, 5 days, CellTiter-Glo. For orientation: Cellular ATP, detected with luciferase, serves as a proxy for viable cell number.

The nature of another data set: in vitro. Conditions: human, uninfected MT-4 cells, CC50 (nM), same protocol as Test A, CellTiter-Glo. Summed up:
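Cytoprotection read-out: CellTiter-Glo chemiluminescence after 5 days at 37 °C of HIV-IIIb-infected MT-4 cells (m.o.i. 0.003) with compound in 10-point 3-fold dilutions, quadruplicate, 10% FBS. Cytotoxicity (CC50) measured identically without virus.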

Broadly, the inhibition is the relative decrease from the control value, in per cent. The CC50 is the concentration giving 50% cytotoxicity. With `NC(=O)c1cc(-c2cccnc2[C@H](Cc2cc(F)cc(F)c2)NC(=O)[C@@H]2CC[C@H](c3ccccc3)N2)ccc1F` [Example 182, (2S,5R)—N—((S)-1-(3-(3-carbamoyl-4-fluorophenyl)pyridin-2-yl)-2-(3,5-difluorophenyl)ethyl)-5-phenylpyrrolidine-2-carboxamide], the inhibition at 2 µM in the data set with HIV-IIIb was determined as 8%. Besides, in “in vitro”, the midpoint of cytotoxicity, the CC50 at 5 days, lay at 51000 nM.

`NC(=O)c1cccc(-c2cccnc2[C@H](Cc2cc(F)cc(F)c2)NC(=O)Cn2ccc3cnc(Cl)nc32)c1` [Example 266C, (S)-3-(2-(1-(2-(2-chloro-7H-pyrrolo[2,3-d]pyrimidin-7-yl)acetamido)-2-(3,5-difluorophenyl)ethyl)pyridin-3-yl)benzamide]: the inhibition at 2 µM in the data set with HIV-IIIb was determined as 0%. In the data set “in vitro”, this compound came in with a CC50 at 5 days of 51900 nM.

In the case of `NC(=O)c1cc(-c2cccnc2[C@H](Cc2cc(F)cc(F)c2)NC(=O)Cn2cc(C(=O)O)c(C(F)(F)F)n2)ccc1F` [Example 323, (S)-1-(2-(1-(3-(3-carbamoyl-4-fluorophenyl)pyridin-2-yl)-2-(3,5-difluorophenyl)ethylamino)-2-oxoethyl)-3-(trifluoromethyl)-1H-pyrazole-4-carboxylic acid], in the data set on HIV-IIIb, the inhibition at 2 µM was 0%. This compound displayed a CC50 at 5 days in the data set “in vitro” of over 53200 nM.

On to `NC(=O)c1cc(-c2cccnc2[C@H](Cc2cc(F)cc(F)c2)NC(=O)Cn2ccc3cc(F)c(Cl)cc32)ccc1F` [Example 568, (S)-5-(2-(1-(2-(6-chloro-5-fluoro-1H-indol-1-yl)acetamido)-2-(3,5-difluorophenyl)ethyl)pyridin-3-yl)-2-fluorobenzamide], for which, in the data set on HIV-IIIb, the inhibition at 2 µM was determined as 42%. The compound also returned a CC50 at 5 days in the data set “in vitro” of 11400 nM.

Consider `CN1Cc2nn(CC(=O)N[C@@H](Cc3cc(F)cc(F)c3)c3ncccc3-c3ccc(F)c(C(N)=O)c3)c(C(F)(F)F)c2C1` [Example 210, (S)-5-(2-(2-(3,5-difluorophenyl)-1-(2-(5-methyl-3-(trifluoromethyl)-5,6-dihydropyrrolo[3,4-c]pyrazol-2(4H)-yl)acetamido)ethyl)pyridin-3-yl)-2-fluorobenzamide], for which the inhibition at 2 µM in the data set with HIV-IIIb came to 0%. This compound yielded a CC50 at 5 days in “in vitro” of over 53200 nM.

As for `CC(C)(C)OC(=O)N1C[C@H](O)C[C@H]1C(=O)N[C@@H](Cc1cc(F)cc(F)c1)c1ncccc1-c1ccc(F)c(C(N)=O)c1` [Example 132, (2S,4R)-tert-butyl 2-((S)-1-(3-(3-carbamoyl-4-fluorophenyl)pyridin-2-yl)-2-(3,5-difluorophenyl)ethylcarbamoyl)-4-hydroxypyrrolidine-1-carboxylate], the inhibition at 2 µM in the data set with HIV-IIIb was 7%. In “in vitro”, this compound displayed a CC50 at 5 days of 22300 nM.

Regarding `O=C1Cc2cc(-c3cccnc3[C@H](Cc3cc(F)cc(F)c3)NC(=O)Cn3nc(C(F)F)c4c3C(F)(F)C3CC43)ccc2N1` (stereo partly drawn) [Example 400, (S)—N-(1-(3-(oxindole-5-yl)-pyridin-2-yl)-2-(3,5-difluorophenyl)ethyl)-2-(3-(difluoromethyl)-5,6-dihydro-4,5-(methano)-6,6-difluoro-cyclopenta[c]pyrazol-1(4H)-yl)acetamide], the inhibition at 2 µM with HIV-IIIb was found to be 45%. Moreover, in the data set “in vitro”, half-maximal cytotoxicity (CC50 at 5 days) was put at 23300 nM.

For `Cc1cc2[nH]cc(CC(=O)N[C@@H](Cc3cc(F)cc(F)c3)c3ncccc3-c3cccc(C(N)=O)c3)c2cc1O` [Example 593, (S)-3-(2-(2-(3,5-difluorophenyl)-1-(2-(5-hydroxy-6-methyl-1H-indol-3-yl)acetamido)ethyl)pyridin-3-yl)benzamide], the inhibition at 2 µM with HIV-IIIb was found to be 52%. Besides, the CC50 at 5 days in the data set “in vitro” is over 53000 nM.

As for `CC(C)(C)OC(=O)N1C(=O)CC[C@H]1C(=O)N[C@@H](Cc1cc(F)cc(F)c1)c1ncccc1-c1ccc(F)c(C(N)=O)c1` [Example 140, (S)-tert-butyl 2-((S)-1-(3-(3-carbamoyl-4-fluorophenyl)pyridin-2-yl)-2-(3,5-difluorophenyl)ethylcarbamoyl)-5-oxopyrrolidine-1-carboxylate], the inhibition at 2 µM in the data set on HIV-IIIb amounted to 0%. Also, the CC50 at 5 days in “in vitro” is over 53000 nM.

As for `O=C(Cn1nc(C(F)F)c2c1C(F)(F)C1CC21)N[C@@H](Cc1cc(F)cc(F)c1)c1ncccc1-c1ccc2cccnc2c1` (stereo partly drawn) [Example 97, (S)—N-(1-(3-(quinoline-7-yl)-pyridin-2-yl)-2-(3,5-difluorophenyl)ethyl)-2-(3-(difluoromethyl)-5,6-dihydro-4,5-(methano)-6,6-difluoro-cyclopenta[c]pyrazol-1(4H)-yl)acetamide], the inhibition at 2 µM with HIV-IIIb amounted to 27%. Moreover, the CC50 at 5 days in “in vitro” worked out at 33900 nM.

In the case of `Cc1cc(-c2cccnc2[C@H](Cc2cc(F)cc(F)c2)NC(=O)Cn2nc(C(F)(F)F)c3c2CCCC3)ccc1F` [Example 65, (S)—N-(2-(3,5-difluorophenyl)-1-(3-(4-fluoro-3-methylphenyl)pyridin-2-yl)ethyl)-2-(3-(trifluoromethyl)-4,5,6,7-tetrahydro-1H-indazol-1-yl)acetamide], the inhibition at 2 µM in the data set with HIV-IIIb is 33%. Further, in the data set “in vitro”, the CC50 at 5 days was determined as 11100 nM.

On to `NC(=O)c1cc(-c2cccnc2[C@H](Cc2cc(F)cc(F)c2)NC(=O)Cc2c[nH]c3ccc(F)cc23)ccn1` [Example 294, (S)-2-(2-(3,5-difluorophenyl)-1-(2-(5-fluoro-1H-indol-3-yl)acetamido)ethyl)-3,4′-bipyridine-2′-carboxamide], for which the inhibition at 2 µM with HIV-IIIb was 114%. The compound also showed a CC50 at 5 days in the data set “in vitro” of 20500 nM.

For `CS(=O)(=O)n1cc(CC(=O)N[C@@H](Cc2cc(F)cc(F)c2)c2ncccc2-c2ccc(F)c(C(N)=O)c2)c2cc(F)ccc21` [Example 444, (S)-5-(2-(2-(3,5-difluorophenyl)-1-(2-(5-fluoro-1-(methylsulfonyl)-1H-indol-3-yl)acetamido)ethyl)pyridin-3-yl)-2-fluorobenzamide], in the data set on HIV-IIIb, the inhibition at 2 µM was determined as 23%. Besides, it took 15500 nM to reach half-maximal cytotoxicity in the data set “in vitro” (CC50 at 5 days).

On to `O=C(Cc1c[nH]c2ccc(F)cc12)N[C@@H](Cc1cc(F)cc(F)c1)c1ncccc1-c1ccc(Cl)cc1Cl` [Example 78, (S)—N-(1-(3-(2,4-dichlorophenyl)pyridin-2-yl)-2-(3,5-difluorophenyl)ethyl)-2-(5-fluoro-1H-indol-3-yl)acetamide], for which the inhibition at 2 µM with HIV-IIIb was 11%. In “in vitro”, this compound yielded a CC50 at 5 days of 7890 nM.

Turning to `Cc1ccc2c(c1)C(CC(=O)N[C@@H](Cc1cc(F)cc(F)c1)c1ncccc1-c1ccc(F)c(C(N)=O)c1)C(=O)N2` (stereo partly drawn) [Example 193, 5-(2-((1S)-2-(3,5-difluorophenyl)-1-(2-(5-methyl-2-oxoindolin-3-yl)acetamido)ethyl)pyridin-3-yl)-2-fluorobenzamide], the inhibition at 2 µM in the data set with HIV-IIIb is 2%. In the data set “in vitro”, this compound showed a half-maximal cytotoxic concentration (CC50) at 5 days of over 53200 nM.

Consider `NC(=O)c1cccc(-c2cccnc2[C@H](Cc2cc(F)cc(F)c2)NC(=O)Cc2c[nH]c3ccccc23)c1` [Example 480, (S)-3-(2-(1-(2-(1H-indol-3-yl)acetamido)-2-(3,5-difluorophenyl)ethyl)pyridin-3-yl)benzamide], for which, in the data set on HIV-IIIb, the inhibition at 2 µM is 93%. This compound displayed a CC50 at 5 days in the data set “in vitro” of 27800 nM.

Turning to `NC(=O)c1cccc(-c2cccnc2[C@H](Cc2cc(F)cc(F)c2)NC(=O)Cn2nc(C(F)(F)F)c3c2COCC3)c1` [Example 144, (S)-3-(2-(2-(3,5-difluorophenyl)-1-(2-(3-(trifluoromethyl)-4,5-dihydropyrano[3,4-c]pyrazol-1(7H)-yl)acetamido)ethyl)pyridin-3-yl)benzamide], the inhibition at 2 µM with HIV-IIIb turned out to be 89%. Besides, the CC50 at 5 days in “in vitro” is over 53000 nM.

For the origin of these results see US9540343B2 (Gilead Sciences, Inc., priority 2011, dated 2017).
